# According to PubChem BioAssay (NCI):
#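 48-hour exposure; five concentrations; linearly interpolated endpoints. Abbreviation: GI50, concentration required for 50% inhibition of growth. TGI marks complete inhibition of growth.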
# Tests used:
# Assay in all cases: NCI-60 cell line screen, 48 h
# OVCAR-8 ovarian = system: OVCAR-8 ovarian
# DU-145 prostate = system: DU-145 prostate
# OVCAR-4 ovarian = system: OVCAR-4 ovarian
# SW-620 colon = system: SW-620 colon
# A549 NSCLC = system: A549 NSCLC
# HCC-2998 colon = system: HCC-2998 colon
# NCI-H522 lung = system: NCI-H522 lung
# TK-10 renal = system: TK-10 renal
# CAKI-1 renal = system: CAKI-1 renal
# HS 578T breast = system: HS 578T breast
# PC-3 prostate = system: PC-3 prostate
# NCI/ADR-RES ovarian = system: NCI/ADR-RES ovarian
# ACHN renal = system: ACHN renal
# HCT-116 colon = system: HCT-116 colon
# MOLT-4 leukemia = system: MOLT-4 leukemia
# SF-295 CNS = system: SF-295 CNS
# SN12C renal = system: SN12C renal
# SNB-19 CNS = system: SNB-19 CNS
# UACC-257 melanoma = system: UACC-257 melanoma
# SNB-75 CNS = system: SNB-75 CNS
# NCI-H460 lung = system: NCI-H460 lung
# MALME-3M melanoma = system: MALME-3M melanoma
# UO-31 renal = system: UO-31 renal
# A498 renal = system: A498 renal
# LOX IMVI melanoma = system: LOX IMVI melanoma
# HL-60(TB) leukemia = system: HL-60(TB) leukemia
# EKVX NSCLC = system: EKVX NSCLC
# 786-0 renal = system: 786-0 renal
compound,measurement,setting,value
CCc1cccc2c3c(sc12)C(c1ccc(Cl)cc1)C(C#N)=C(/N=C/c1ccc(Cl)cc1)O3 (stereo unspecified),GI50,OVCAR-8 ovarian,1600 nM
same,TGI,OVCAR-8 ovarian,> 50000 nM
same,GI50,DU-145 prostate,1270 nM
same,TGI,DU-145 prostate,> 50000 nM
same,GI50,OVCAR-4 ovarian,> 50000 nM
same,TGI,OVCAR-4 ovarian,> 50000 nM
same,GI50,SW-620 colon,360 nM
same,TGI,SW-620 colon,> 50000 nM
same,GI50,A549 NSCLC,670 nM
same,TGI,A549 NSCLC,> 50000 nM
same,GI50,HCC-2998 colon,1080 nM
same,TGI,HCC-2998 colon,> 50000 nM
same,GI50,NCI-H522 lung,206 nM
same,TGI,NCI-H522 lung,2960 nM
same,GI50,TK-10 renal,8460 nM
same,TGI,TK-10 renal,> 50000 nM
same,GI50,CAKI-1 renal,1290 nM
same,TGI,CAKI-1 renal,> 50000 nM
same,GI50,HS 578T breast,1180 nM
same,TGI,HS 578T breast,35100 nM
same,GI50,PC-3 prostate,556 nM
same,TGI,PC-3 prostate,> 50000 nM
same,GI50,NCI/ADR-RES ovarian,214 nM
same,TGI,NCI/ADR-RES ovarian,8380 nM
same,GI50,ACHN renal,779 nM
same,TGI,ACHN renal,> 50000 nM
same,GI50,HCT-116 colon,347 nM
same,TGI,HCT-116 colon,> 50000 nM
same,GI50,MOLT-4 leukemia,1650 nM
same,TGI,MOLT-4 leukemia,> 50000 nM
same,GI50,SF-295 CNS,177 nM
same,TGI,SF-295 CNS,806 nM
same,GI50,SN12C renal,1930 nM
same,TGI,SN12C renal,> 50000 nM
same,GI50,SNB-19 CNS,1200 nM
same,TGI,SNB-19 CNS,15800 nM
same,GI50,UACC-257 melanoma,21400 nM
same,TGI,UACC-257 melanoma,> 50000 nM
same,GI50,SNB-75 CNS,104 nM
same,TGI,SNB-75 CNS,1220 nM
same,GI50,NCI-H460 lung,1020 nM
same,TGI,NCI-H460 lung,> 50000 nM
same,GI50,MALME-3M melanoma,4720 nM
same,TGI,MALME-3M melanoma,> 50000 nM
same,GI50,UO-31 renal,1690 nM
same,TGI,UO-31 renal,> 50000 nM
same,GI50,A498 renal,280 nM
same,TGI,A498 renal,4920 nM
same,GI50,LOX IMVI melanoma,905 nM
same,TGI,LOX IMVI melanoma,> 50000 nM
same,GI50,HL-60(TB) leukemia,577 nM
same,TGI,HL-60(TB) leukemia,> 50000 nM
same,GI50,EKVX NSCLC,1340 nM
same,TGI,EKVX NSCLC,> 50000 nM
same,GI50,786-0 renal,1630 nM
same,TGI,786-0 renal,> 50000 nM
